# Laboratory results taken from paper PMC3011871, “Purification and Biochemical Characterization of a Specific β-Glucosidase from the Digestive Fluid of Larvae of the Palm Weevil, Rhynchophorus palmarum” (Journal of Insect Science, 2009).
# How the values were obtained:
# [1] = test system: T1, β-glucosidase from the digestive fluid of Rhynchophorus palmarum larvae; assay: p-nitrophenol release at […] nm, Lineweaver-Burk; format: biochemical; conditions: 100 mM acetate buffer pH 5.0, 37°C
# T1 construct: gene cellobiase; native, purified from larval digestive fluid (Abidjan, Côte d'Ivoire); monomer, 58 kDa SDS-PAGE, 60 kDa gel filtration
# [2] = test system: T1, β-glucosidase from the digestive fluid of Rhynchophorus palmarum larvae; assay: glucose release by glucose oxidase-peroxidase, Lineweaver-Burk; format: biochemical; conditions: 100 mM acetate buffer pH 5.0, 37°C
# Description: glucose release by glucose oxidase-peroxidase, Lineweaver-Burk on β-glucosidase from the digestive fluid of Rhynchophorus palmarum larvae
SMILES,Km [1],Km [2]
O=[N+]([O-])c1ccc(O[C@@H]2O[C@H](CO)[C@@H](O)[C@H](O)[C@H]2O)cc1 [p-nitrophenyl-β-D-glucopyranoside],250 µM,
OC[C@H]1O[C@@H](O[C@H]2[C@H](O)[C@@H](O)C(O)O[C@@H]2CO)[C@H](O)[C@@H](O)[C@@H]1O (some centres unmarked) [cellobiose],,310 µM
